According to the NIST ThermoML archive (doi:10.1021/je3011979):

Tests used:
[1] = excess molar enthalpy (molar enthalpy of mixing); xn = mol fraction of the nth substance listed; details: 101 kPa, Liquid, Calvet calorimetry
[2] = xn = mol fraction of the nth substance listed; details: 101 kPa, Liquid, Vibrating tube method

CCCOC(C)=O [propyl ethanoate] + CCCCCCCCCC
Details | excess molar enthalpy [kcal/mol] | mass density [kg/m3]
[1], 291.15 K, x1 = 0.0703 | 0.0935 | –
[1], 291.15 K, x1 = 0.1623 | 0.18 | –
[1], 291.15 K, x1 = 0.2528 | 0.2536 | –
[1], 291.15 K, x1 = 0.3401 | 0.305 | –
[1], 291.15 K, x1 = 0.4179 | 0.3344 | –
[1], 291.15 K, x1 = 0.4892 | 0.3482 | –
[1], 291.15 K, x1 = 0.5501 | 0.3489 | –
[1], 291.15 K, x1 = 0.6049 | 0.3413 | –
[1], 291.15 K, x1 = 0.615 | 0.3377 | –
[1], 291.15 K, x1 = 0.6649 | 0.3196 | –
[1], 291.15 K, x1 = 0.7166 | 0.2935 | –
[1], 291.15 K, x1 = 0.7751 | 0.2524 | –
[1], 291.15 K, x1 = 0.8324 | 0.202 | –
[1], 291.15 K, x1 = 0.8924 | 0.14 | –
[1], 291.15 K, x1 = 0.9524 | 0.0739 | –
[1], 298.15 K, x1 = 0.1028 | 0.127 | –
[1], 298.15 K, x1 = 0.2102 | 0.212 | –
[1], 298.15 K, x1 = 0.3062 | 0.2768 | –
[1], 298.15 K, x1 = 0.3924 | 0.3148 | –
[1], 298.15 K, x1 = 0.4676 | 0.3332 | –
[1], 298.15 K, x1 = 0.5348 | 0.3384 | –
[1], 298.15 K, x1 = 0.5925 | 0.3334 | –
[1], 298.15 K, x1 = 0.6163 | 0.3258 | –
[1], 298.15 K, x1 = 0.6615 | 0.3119 | –
[1], 298.15 K, x1 = 0.71 | 0.2856 | –
[1], 298.15 K, x1 = 0.7601 | 0.2572 | –
[1], 298.15 K, x1 = 0.8123 | 0.215 | –
[1], 298.15 K, x1 = 0.8626 | 0.169 | –
[1], 298.15 K, x1 = 0.9119 | 0.118 | –
[1], 298.15 K, x1 = 0.9581 | 0.0619 | –
[1], 318.15 K, x1 = 0.1083 | 0.133 | –
[1], 318.15 K, x1 = 0.2064 | 0.2204 | –
[1], 318.15 K, x1 = 0.3068 | 0.2894 | –
[1], 318.15 K, x1 = 0.3885 | 0.326 | –
[1], 318.15 K, x1 = 0.4625 | 0.3456 | –
[1], 318.15 K, x1 = 0.5203 | 0.3475 | –
[1], 318.15 K, x1 = 0.571 | 0.3423 | –
[1], 318.15 K, x1 = 0.6098 | 0.3325 | –
[1], 318.15 K, x1 = 0.6588 | 0.3176 | –
[1], 318.15 K, x1 = 0.7129 | 0.2928 | –
[1], 318.15 K, x1 = 0.7682 | 0.2588 | –
[1], 318.15 K, x1 = 0.8288 | 0.212 | –
[1], 318.15 K, x1 = 0.8862 | 0.153 | –
[1], 318.15 K, x1 = 0.948 | 0.0829 | –
[2], 291.15 K, x1 = 0.0491 | – | 735.2
[2], 291.15 K, x1 = 0.1081 | – | 740.2
[2], 291.15 K, x1 = 0.2054 | – | 749.4
[2], 291.15 K, x1 = 0.2933 | – | 758.8
[2], 291.15 K, x1 = 0.372 | – | 768
[2], 291.15 K, x1 = 0.4514 | – | 778.3
[2], 291.15 K, x1 = 0.5221 | – | 788.4
[2], 291.15 K, x1 = 0.5892 | – | 798.8
[2], 291.15 K, x1 = 0.6468 | – | 808.4
[2], 291.15 K, x1 = 0.7079 | – | 819.6
[2], 291.15 K, x1 = 0.7955 | – | 837.5
[2], 291.15 K, x1 = 0.8151 | – | 841.8
[2], 291.15 K, x1 = 0.8554 | – | 851.2
[2], 291.15 K, x1 = 0.8932 | – | 860.5
[2], 291.15 K, x1 = 0.9454 | – | 874.3
[2], 291.15 K, x1 = 0.9719 | – | 881.5
[2], 291.15 K, x1 = 1 | – | 889.6
[2], 298.15 K, x1 = 0.0402 | – | 729.1
[2], 298.15 K, x1 = 0.1191 | – | 735.7
[2], 298.15 K, x1 = 0.2077 | – | 744
[2], 298.15 K, x1 = 0.2921 | – | 752.8
[2], 298.15 K, x1 = 0.3727 | – | 762.1
[2], 298.15 K, x1 = 0.4509 | – | 772
[2], 298.15 K, x1 = 0.5172 | – | 781.2
[2], 298.15 K, x1 = 0.5788 | – | 790.5
[2], 298.15 K, x1 = 0.6343 | – | 799.5
[2], 298.15 K, x1 = 0.6912 | – | 809.6
[2], 298.15 K, x1 = 0.7504 | – | 820.9
[2], 298.15 K, x1 = 0.7988 | – | 830.9
[2], 298.15 K, x1 = 0.8462 | – | 841.5
[2], 298.15 K, x1 = 0.8882 | – | 851.7
[2], 298.15 K, x1 = 0.9267 | – | 861.6
[2], 298.15 K, x1 = 0.9583 | – | 870.2
[2], 298.15 K, x1 = 1 | – | 882.5
[2], 318.15 K, x1 = 0.064 | – | 715.5
[2], 318.15 K, x1 = 0.1164 | – | 719.7
[2], 318.15 K, x1 = 0.1961 | – | 726.8
[2], 318.15 K, x1 = 0.2794 | – | 734.8
[2], 318.15 K, x1 = 0.3548 | – | 742.9
[2], 318.15 K, x1 = 0.4333 | – | 752.2
[2], 318.15 K, x1 = 0.4936 | – | 760
[2], 318.15 K, x1 = 0.5563 | – | 768.6
[2], 318.15 K, x1 = 0.6213 | – | 778.5
[2], 318.15 K, x1 = 0.6781 | – | 788
[2], 318.15 K, x1 = 0.7226 | – | 795.8
[2], 318.15 K, x1 = 0.7733 | – | 805.5
[2], 318.15 K, x1 = 0.8247 | – | 816.1
[2], 318.15 K, x1 = 0.867 | – | 825.5
[2], 318.15 K, x1 = 0.9092 | – | 835.5
[2], 318.15 K, x1 = 0.9463 | – | 844.9
[2], 318.15 K, x1 = 1 | – | 859.8
[2], 328.15 K, x1 = 0.0485 | – | 706.6
[2], 328.15 K, x1 = 0.1075 | – | 711.1
[2], 328.15 K, x1 = 0.196 | – | 718.6
[2], 328.15 K, x1 = 0.2952 | – | 728
[2], 328.15 K, x1 = 0.3758 | – | 736.6
[2], 328.15 K, x1 = 0.4553 | – | 746
[2], 328.15 K, x1 = 0.5227 | – | 754.7
[2], 328.15 K, x1 = 0.5818 | – | 763
[2], 328.15 K, x1 = 0.6506 | – | 773.6
[2], 328.15 K, x1 = 0.7058 | – | 782.9
[2], 328.15 K, x1 = 0.7598 | – | 792.6
[2], 328.15 K, x1 = 0.8204 | – | 804.6
[2], 328.15 K, x1 = 0.8511 | – | 811.2
[2], 328.15 K, x1 = 0.8851 | – | 818.8
[2], 328.15 K, x1 = 0.9321 | – | 830.2
[2], 328.15 K, x1 = 0.958 | – | 836.9
[2], 328.15 K, x1 = 1 | – | 848.3
